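Grown in 96-well plates, cells were treated for 48 hours with each compound at five concentrations. Insufficient inhibition: endpoint recorded as highest concentration tested. At the TGI there is no net growth.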
Legend:
Experiment in all cases: growth of human tumour cells (NCI), 48 h
RXF 393 renal = tested on: RXF 393 renal
HCT-15 colon = tested on: HCT-15 colon
NCI-H460 lung = tested on: NCI-H460 lung
A549 NSCLC = tested on: A549 NSCLC
LOX IMVI melanoma = tested on: LOX IMVI melanoma
TK-10 renal = tested on: TK-10 renal
HT29 colon = tested on: HT29 colon
NCI-H23 lung = tested on: NCI-H23 lung
SK-MEL-2 melanoma = tested on: SK-MEL-2 melanoma
IGROV1 ovarian = tested on: IGROV1 ovarian
HCC-2998 colon = tested on: HCC-2998 colon
MALME-3M melanoma = tested on: MALME-3M melanoma
MDA-MB-435 = tested on: MDA-MB-435
SW-620 colon = tested on: SW-620 colon
ACHN renal = tested on: ACHN renal
UO-31 renal = tested on: UO-31 renal
HCT-116 colon = tested on: HCT-116 colon
UACC-62 melanoma = tested on: UACC-62 melanoma
DU-145 prostate = tested on: DU-145 prostate
HS 578T breast = tested on: HS 578T breast
U251 CNS = tested on: U251 CNS
SNB-19 CNS = tested on: SNB-19 CNS
OVCAR-3 ovarian = tested on: OVCAR-3 ovarian
MDA-N = tested on: MDA-N
A498 renal = tested on: A498 renal
T-47D breast = tested on: T-47D breast
MDA-MB-231 breast = tested on: MDA-MB-231 breast
SK-MEL-28 melanoma = tested on: SK-MEL-28 melanoma
M14 melanoma = tested on: M14 melanoma
OVCAR-5 ovarian = tested on: OVCAR-5 ovarian
NCI-H226 lung = tested on: NCI-H226 lung
RPMI-8226 leukemia = tested on: RPMI-8226 leukemia
SF-268 CNS = tested on: SF-268 CNS
MCF7 breast = tested on: MCF7 breast
SN12C renal = tested on: SN12C renal
SF-295 CNS = tested on: SF-295 CNS
SF-539 CNS = tested on: SF-539 CNS
SK-MEL-5 melanoma = tested on: SK-MEL-5 melanoma
SK-OV-3 ovarian = tested on: SK-OV-3 ovarian
786-0 renal = tested on: 786-0 renal
OVCAR-8 ovarian = tested on: OVCAR-8 ovarian
SNB-75 CNS = tested on: SNB-75 CNS
BT-549 breast = tested on: BT-549 breast
HOP-62 NSCLC = tested on: HOP-62 NSCLC
UACC-257 melanoma = tested on: UACC-257 melanoma
KM12 colon = tested on: KM12 colon
PC-3 prostate = tested on: PC-3 prostate
K-562 leukemia = tested on: K-562 leukemia
SR leukemia = tested on: SR leukemia
CAKI-1 renal = tested on: CAKI-1 renal
MOLT-4 leukemia = tested on: MOLT-4 leukemia
CCRF-CEM leukemia = tested on: CCRF-CEM leukemia
COLO 205 colon = tested on: COLO 205 colon
OVCAR-4 ovarian = tested on: OVCAR-4 ovarian
EKVX NSCLC = tested on: EKVX NSCLC
NCI-H522 lung = tested on: NCI-H522 lung
HL-60(TB) leukemia = tested on: HL-60(TB) leukemia

## O=C1C=CC(=O)c2c(O)c(NCCCN3CCOCC3)c(Cl)c(O)c21
RXF 393 renal
  TGI: 3.13 µM
HCT-15 colon
  TGI: 3.12 µM
NCI-H460 lung
  TGI: > 10 µM
A549 NSCLC
  TGI: > 10 µM
LOX IMVI melanoma
  TGI: 4.26 µM
TK-10 renal
  TGI: > 10 µM
HT29 colon
  TGI: 7.34 µM
NCI-H23 lung
  TGI: 3.43 µM
SK-MEL-2 melanoma
  TGI: 0.526 µM
IGROV1 ovarian
  TGI: 3.58 µM
HCC-2998 colon
  TGI: 3.71 µM
MALME-3M melanoma
  TGI: 3.56 µM
MDA-MB-435
  TGI: 3.62 µM
SW-620 colon
  TGI: 4.22 µM
ACHN renal
  TGI: > 10 µM
UO-31 renal
  TGI: 3.64 µM
HCT-116 colon
  TGI: 2.93 µM
UACC-62 melanoma
  TGI: 4.81 µM
DU-145 prostate
  TGI: 2.95 µM
HS 578T breast
  TGI: 3.14 µM
U251 CNS
  TGI: 5.55 µM
SNB-19 CNS
  TGI: 3.25 µM
OVCAR-3 ovarian
  TGI: 2.99 µM
MDA-N
  TGI: 3.09 µM
A498 renal
  TGI: > 10 µM
T-47D breast
  TGI: > 10 µM
MDA-MB-231 breast
  TGI: 7.96 µM
SK-MEL-28 melanoma
  TGI: 3.17 µM
M14 melanoma
  TGI: 4.18 µM
OVCAR-5 ovarian
  TGI: 3.1 µM
NCI-H226 lung
  TGI: > 10 µM
RPMI-8226 leukemia
  TGI: 1.54 µM
SF-268 CNS
  TGI: 7.07 µM
MCF7 breast
  TGI: 3.31 µM
SN12C renal
  TGI: 3.68 µM
SF-295 CNS
  TGI: 5.49 µM
SF-539 CNS
  TGI: 3.21 µM
SK-MEL-5 melanoma
  TGI: 2.4 µM
SK-OV-3 ovarian
  TGI: > 10 µM
786-0 renal
  TGI: 5.23 µM
OVCAR-8 ovarian
  TGI: > 10 µM
SNB-75 CNS
  TGI: 4.15 µM
BT-549 breast
  TGI: 3.28 µM
HOP-62 NSCLC
  TGI: 3.86 µM
UACC-257 melanoma
  TGI: 4.94 µM
KM12 colon
  TGI: 3.8 µM
PC-3 prostate
  TGI: 9.91 µM
K-562 leukemia
  TGI: 8.68 µM
SR leukemia
  TGI: 4.64 µM

## Cc1cccc(NC(=O)/C=C/c2ccccc2)c1C
HCT-15 colon
  TGI: > 100 µM
NCI-H460 lung
  TGI: > 100 µM
A549 NSCLC
  TGI: > 100 µM
LOX IMVI melanoma
  TGI: > 100 µM
TK-10 renal
  TGI: > 100 µM
HT29 colon
  TGI: > 100 µM
NCI-H23 lung
  TGI: > 100 µM
SK-MEL-2 melanoma
  TGI: > 100 µM
HCC-2998 colon
  TGI: > 100 µM
MALME-3M melanoma
  TGI: > 100 µM
CAKI-1 renal
  TGI: > 100 µM
MDA-MB-435
  TGI: > 100 µM
MOLT-4 leukemia
  TGI: > 100 µM
CCRF-CEM leukemia
  TGI: > 100 µM
SW-620 colon
  TGI: > 100 µM
ACHN renal
  TGI: > 100 µM
HCT-116 colon
  TGI: > 100 µM
UACC-62 melanoma
  TGI: > 100 µM
DU-145 prostate
  TGI: > 100 µM
HS 578T breast
  TGI: > 100 µM
U251 CNS
  TGI: > 100 µM
SNB-19 CNS
  TGI: > 100 µM
OVCAR-3 ovarian
  TGI: > 100 µM
MDA-N
  TGI: > 100 µM
COLO 205 colon
  TGI: > 100 µM
A498 renal
  TGI: > 100 µM
T-47D breast
  TGI: > 100 µM
MDA-MB-231 breast
  TGI: > 100 µM
SK-MEL-28 melanoma
  TGI: > 100 µM
M14 melanoma
  TGI: > 100 µM
OVCAR-5 ovarian
  TGI: > 100 µM
NCI-H226 lung
  TGI: > 100 µM
OVCAR-4 ovarian
  TGI: > 100 µM
RPMI-8226 leukemia
  TGI: > 100 µM
EKVX NSCLC
  TGI: > 100 µM
NCI-H522 lung
  TGI: > 100 µM
SF-268 CNS
  TGI: > 100 µM
MCF7 breast
  TGI: > 100 µM
SN12C renal
  TGI: > 100 µM
SF-295 CNS
  TGI: > 100 µM
HL-60(TB) leukemia
  TGI: > 100 µM
SF-539 CNS
  TGI: > 100 µM
SK-MEL-5 melanoma
  TGI: > 100 µM
SK-OV-3 ovarian
  TGI: > 100 µM
786-0 renal
  TGI: > 100 µM
OVCAR-8 ovarian
  TGI: > 100 µM
SNB-75 CNS
  TGI: > 100 µM
BT-549 breast
  TGI: > 100 µM
HOP-62 NSCLC
  TGI: > 100 µM
UACC-257 melanoma
  TGI: > 100 µM
KM12 colon
  TGI: > 100 µM
PC-3 prostate
  TGI: > 100 µM
K-562 leukemia
  TGI: > 100 µM
SR leukemia
  TGI: > 100 µM

From PubChem BioAssay (NCI)
